Experimental data from patent US8883827B2, “Azole derivatives as WTN pathway inhibitors” (Oslo University Hospital HF, priority 2009, dated 2014).
pIC50: −log10 of the molar value.

What was measured:
Assay type in all cases: cell-based
[1] = system: canonical Wnt signaling; experiment: ST-Luc (SuperTOPFlash) Luciferase assay in HEK293 cells, 30% Wnt3a-CM; details: Homo sapiens, HEK293; 10 μM compound, 30% Wnt3a-CM, 24 h; relative to DMSO control
Description: Inhibition of Wnt signaling by compound No. 1 was quantified in vitro using a Luciferase assay in HEK293 cells transiently transfected with SuperTOPFlash plasmid (ST-Luc) (Veeman M T et al., Curr. Biol. 13: 680-685, 2003) at concentrations from 0.1-10 μM. HEK293 cells were purchased from ATCC (American Type Culture Collection) and maintained according to suppliers recommendations.
Transfection was performed using 80000 HEK293 cells seeded in 48-well plates coated with poly-L lysine. After 24 hours, 0.25 μg total plasmid DNA (0.23 μg SuperTOPFlash+0.02 μg pRL-TK (Renilla)—Promega) and 0.75 μl FuGENE6 (Roche) was combined in a total volume in 25 μl Opti-MEM® (Invitrogen) as described by the manufacturer (Roche). The transfection mixture was added to the plated cells and media were changed after 24 hours.
The Luciferase assay was performed by incubating transfected cells for 24 hours with various concentrations of compound No. 1 in 30% Wnt3a-CM (Wnt3a containing conditioned medium from L Wnt3a cells was harvested as described by ATCC). All treated reporter cells were finally lysed and the firefly luciferase and Renilla activities were measured on a 20/20n Luminometer (Turner BioSystems) as described in the Dual-Glo™ Luciferase Assay System Technical Manual (Promega).
HEK293 cells were transfected, grown and assayed as described in Example 22. 24 hours after seeding, the cells were incubated for an additional 24 hours with 10 μM concentrations of compounds in 30% Wnt3a-CM.
The percent activities shown in Table 3 are calculated relative to DMSO as a control. Some values shown are averages of multiple measurements. Compound XAV939 (Novartis; Huang et al., Nature (2009), 461, pp. 614-20) which is used as a positive control, has an activity of 7%.

[2] = system: SW480 colon carcinoma cells; experiment: MTS cell proliferation assay, Table 5; details: Homo sapiens; SW480, 10 μM, 72 h; relative to DMSO control; read-out: Cell proliferation (%) for test compounds
Description: For the experiment giving the results shown in Table 5, cells (3000 per well) were seeded on 96 well plates (eight replicates per treatment). After 24 hours, and daily thereafter, cell culture medium (including 10% FBS) was mixed with 10 μM compounds or with 0.1% DMSO vehicle and then added to the wells. Sixteen wells of seeded control cells, defining incubation time zero (t0=24 hour after cell seeding), were incubated with 20 μl substrate in 100 μl phenol free D-MEM (Invitrogen) for 2 hours, as described in the CellTiter 96® AQueous Non-Radioactive Cell Proliferation Assay protocol (Promega). The A490 was recorded. The treatment samples were likewise measured after 72 hours.
The quantity of reduced MTS product (as measured by the absorbance at 490 nm) is directly proportional to the number of living cells in the culture and thus allows a direct comparison of cell proliferation in each case. DMSO was used as a control. The following formula was used to determine single well relative A490 sample values: ((Sample A490−Average A490t0)*100)/(Average A490t720.1% DMSO control−Average A490t0)
The proliferation of SW480 cells (in percent) is the A492 value relative to that of the DMSO control.

[3] = system: canonical Wnt signaling; experiment: IC50 in STF/REN HEK293 cells, 50% Wnt3a-CM; details: Homo sapiens; STF/REN HEK293, 50% Wnt3a-CM, 24 h
Description: IC50 values were calculated using STF/REN HEK293 cells prepared essentially according to Example 22. Briefly, HEK293 cells (80,000 cells per well) were seeded in 48-well plates coated with poly-L lysine. 24 hours after seeding, the cells were incubated for an additional 24 hours with various compound concentrations in 50% Wnt3a-CM. After compound exposure, the cells were lysed and the firefly luciferase and Renilla activities were measured on a 20/20n Luminometer (Turner BioSystems) as described in the Dual-Glo™ Luciferase Assay System Technical Manual (Promega).
XLfit (idbs) was used to determine the IC50 and GI50 values in inhibition experiments. The data were fit to the following formulae:
IC50: Langmuir Binding Isotherm: fit=((A+(B*x))+(((C−B)*(1−exp((−1*D)*x)))/D)) res=(y−fit)

SMILES | activity at 10 µM [1] | activity at 10 µM [2] | pIC50 [3]
CCOc1ccc(-c2nnc(SCc3nnc(-c4ccc(C)cc4)o3)n2-c2ccccc2Cl)cc1 [compound 109, 3-((5-p-tolyl-1,3,4-oxadiazol-2-yl)methylthio)-4-(2-chlorophenyl)-5-(4-ethoxyphenyl)-4H-1,2,4-triazole] | 0.6% | 33% | 
COc1ccc(-n2c(S)nnc2-c2ccncc2)cc1 [Compound 15] | 69.1% |  | 
Cc1ccc(-c2nnc(CSc3nnc(-c4ccncc4)n3-c3ccccc3Cl)o2)cc1Br [compound 73] | 29% |  | 
Cc1ccc(-n2c(SCc3nc(C(C)(C)C)no3)nnc2-c2ccncc2)cc1 [Compound 81] | 89% |  | 
Cc1ccc(-c2nnc(CSc3nnc(-c4ccc(Cl)c(Cl)c4)n3-c3ccccc3Cl)o2)cc1 [compound 131, 3-((5-p-tolyl-1,3,4-oxadiazol-2-yl)methylthio)-4-(2-chlorophenyl)-5-(3,4-dichlorophenyl)-4H-1,2,4-triazole] | 4% | 53% | 
Cc1ccc(-c2nnc(CCc3nnc(-c4ccncc4)n3-c3ccccc3Cl)o2)cc1 [compound 101] | 23% | 47% | 
Cc1ccccc1-n1c(SCC(=O)Nc2ccc3c(c2)CCC3)nnc1-c1ccncc1 [Compound 89] | 94% |  | 
NCCCOCCCOc1cccc(-c2noc(CSc3nnc(-c4ccncc4)n3-c3ccccc3Cl)n2)c1 [compound 67] | 12.7% |  | > 7.00
COc1ccc(-n2c(SCCc3nc(-c4ccc(C)cc4)no3)nnc2-c2ccncc2)cc1 [Compound 2] | 31.8% |  | 
Fc1ccc(-n2c(SCc3nc(-c4ccc(Cl)cc4)no3)nnc2-c2ccncc2)cc1 [Compound 12] | 38.8% |  | 5.00
COc1ccc(-n2c(SCCNC(C)=O)nnc2-c2ccncc2)cc1 [Compound 33] | 79.6% |  | 
Cc1ccccc1-n1c(SCc2nc(-c3cccc(C(F)(F)F)c3)no2)ccc1-c1ccncc1 [Compound 57] | 51.8% |  | 
Cc1ccc(-c2nnc(Sc3nnc(-c4ccncc4)n3-c3ccccc3Cl)s2)cc1 [Compound 63] | 99% |  | 
Cc1ccc(NC(=O)CSc2nnc(-c3ccncc3)n2-c2ccc(C)cc2)cc1 [Compound 92] | 84% |  | 
Cc1ccccc1-n1c(SCc2nc(-c3ccccc3Cl)no2)nnc1-c1ccncc1 [Compound 56] | 55.1% |  | 
Cc1ccccc1-n1c(SCc2nc(-c3cccc(O)c3)no2)nnc1-c1ccncc1 [Compound 47] | 8.7% |  | 6.02
COc1ccc(-n2c(O)nnc2-c2ccncc2)cc1 [Compound 16] | 71.8% |  | 
Cc1ccc(-c2noc(CSc3nnc(-c4cccc(O)c4)n3-c3ccccc3C)n2)cc1 [Compound 45] | 78.1% |  | 
CCOc1ccc(-n2c(SCc3nnc(C)o3)nnc2-c2ccncc2)cc1 [Compound 30] | 78% |  | 
Cc1ccc(-c2nnc(CSc3nnc(-c4ccncc4)n3-c3ccccc3Cl)o2)s1 [compound 74] | 13% |  | 6.43
COc1ccc(-n2c(SCc3cn4ccccc4n3)nnc2-c2ccncc2)cc1 [Compound 27] | 80.3% |  | 
CCOc1ccc(-n2c(SCc3nc(-c4cccc(Cl)c4)no3)nnc2-c2ccncc2)cc1 [Compound 25] | 59% |  | 5.00
Cc1ccc(-c2noc(CSc3nnc(-c4ccncc4)n3-c3ccc(Cl)cc3)n2)cc1 [Compound 3] | 32.5% |  | 
Sc1nnc(-c2ccncc2)n1-c1ccc(Cl)cc1 [Compound 17] | 76.8% |  | 

SMILES | activity at 10 µM [1] | activity at 10 µM [2] | pIC50 [3]
Cc1cc2nc(CSc3nnc(-c4ccncc4)n3-c3ccccc3Cl)cc(=O)n2cc1C [compound 103] | 20% | 67% | 
Cc1ccc(-n2c(SCC(=O)NC3CCCC3)nnc2-c2ccncc2)cc1 [Compound 93] | 91% |  | 
Cc1ccccc1-n1c(SCC(=O)NCc2cccs2)nnc1-c1ccncc1 [Compound 88] | 99% |  | 
COc1cc(OC)cc(-c2nnc(SCc3nnc(-c4ccc(C)cc4)o3)n2-c2ccccc2Cl)c1 [Compound 107] | 4.5% | 47% | 
Cc1ccc(-c2nnc(CSc3nnc(-c4cnc(N)nc4)n3-c3ccccc3Cl)o2)cc1 [compound 132, 5-(5-((5-p-tolyl-1,3,4-oxadiazol-2-yl)methylthio)-4-(2-chlorophenyl)-4H-1,2,4-triazol-3-yl)pyrimidin-2-amine] | 32% |  | 
Cc1ccc2nc(CSc3nnc(-c4ccncc4)n3-c3ccccc3C)cc(=O)n2c1 [Compound 85] | 43% |  | 
CC(Sc1nnc(-c2ccccc2)n1-c1ccc(F)cc1F)c1nc(-c2ccncc2)no1 (centres unmarked) [Compound 80] | 32% |  | 
Cc1ccc(-c2noc(CSc3nnc(-c4cccnc4)n3-c3ccccc3C)n2)cc1 [Compound 77] | 51% |  | 
COc1ccc(-n2c(SC)nnc2-c2ccncc2)cc1 [Compound 14] | 63.5% |  | 
Cc1ccccc1-c1nnc(CSc2nnc(-c3ccncc3)n2-c2ccccc2Cl)o1 [compound 71] | 31% |  | 
Cc1ccc(-c2nnc(CSc3nnc(-c4ccc(Cl)cc4)n3-c3ccccc3Cl)o2)cc1 [compound 111, 3-((5-p-tolyl-1,3,4-oxadiazol-2-yl)methylthio)-4-(2-chlorophenyl)-5-(4-chlorophenyl)-4H-1,2,4-triazole] | 0.7% | 44% | 
O=C(CSc1nnc(-c2ccncc2)n1-c1ccccc1)Nc1ccccn1 [Compound 97] | 80% |  | 
N#Cc1ccc(-c2nnc(CSc3nnc(-c4ccncc4)n3-c3ccccc3Cl)o2)cc1 [Compound 69] | 26% |  | 
COc1ccc(-n2c(CCN(C)C)nnc2-c2ccncc2)cc1 [Compound 6] | 55.7% |  | 
Cc1ccc(-c2nc(CSc3nnc(-c4ccncc4)n3-c3ccccc3Cl)sc2C)cc1 [Compound 62] | 58% |  | 
Cc1ccc(-c2nnc(S[C@H](C)c3nnc(-c4ccncc4)n3-c3ccccc3Cl)o2)cc1 [100b] | 5% | 66% | 
Cc1ccc(-c2nnc(CSc3nnc(-c4ccc(F)cc4)n3-c3ccccc3Cl)o2)cc1 [compound 115, 3-((5-p-tolyl-1,3,4-oxadiazol-2-yl)methylthio)-4-(2-chlorophenyl)-5-(4-fluorophenyl)-4H-1,2,4-triazole] | 5% | 60% | 
Cc1ccc(-n2c(SC(C)c3nc(-c4ccncc4)no3)nnc2-c2ccncc2)cc1C (centres unmarked) [Compound 79] | 16% | 70% | 
CC1CCCCC1n1c(SCc2nnc(-c3ccccc3)o2)nnc1-c1cccnc1 (centres unmarked) [Compound 87] | 52% |  | 
COc1ccc(-n2c(OCc3nc(-c4ccc(C)cc4)no3)nnc2-c2ccncc2)cc1 [Compound 4] | 98.4% |  | 
Fc1ccc(-n2c(SCc3nc(-c4cccc(Cl)c4)no3)nnc2-c2ccncc2)cc1 [Compound 21] | 90.1% |  | 5.00
Cc1ccc(-c2noc(CS(=O)(=O)c3nnc(-c4ccncc4)n3-c3ccccc3Cl)n2)cc1 [compound 66] | 25.6% |  | 5.76
Cc1ccccc1-n1c(SCC(=O)Nc2ncccn2)nnc1-c1ccncc1 [Compound 82] | 83% |  | 
COc1ccc(-n2c(SCc3nc(-c4cccs4)no3)nnc2-c2ccncc2)cc1 [Compound 13] | 34.5% |  | 5.15
